Data taken from patent publication EP0155094A1, “2-Arylimidazo(4,5-c)pyridines” (ELI LILLY AND COMPANY, priority 1984, dated 1985).
Where a name gives a salt, the structure may show the parent alone.

Tests used:
cardiac contractility = assay: Cardiac contractility in anesthetized dogs; format: in vivo, Mongrel dogs; conditions: Canis lupus familiaris, iv, i.v. bolus, read-out: ED50 (dose, i.v., which produced a peak increase of 50% over control)
Protocol: Mongrel dogs of either sex ranging in weight from 7 to 14 kg. were used. Anesthesia was induced with sodium pentobarbital (30 mg./kg., i.v.) and maintained with supplemental doses as required. A positive-pressure pump was used to ventilate the dogs through an endotracheal tube (18 strokes/minute, 20 ml./kg. stroke 1), and a heating pad kept the body temperature at 37-38°C. Femoral arterial blood pressure was measured through a polyethylene catheter filled with heparin solution (16 units/ml.) and connected to a Statham pressure transducer. A strain-gauge arch sutured to the right ventricle of the heart measured cardiac contractility. Tension on the gauge was adjusted to 50 g. and the gain of the recorder (Beckman dynograph) was set so that 50 g. caused a 10-mm. pen deflection; cardiac contractile tension was measured as millimeters of pen deflection or grams of tension. The drug was administered following a 30-45 minute equilibrium period as an i.v. bolus (2-5 ml.) in a normal saline vehicle. […] The maximum effects on contractility at various dose levels were calculated as a percent of control (control = 100 percent). The compound of Example 1 produced an ED50 (dose, i.v., which produced a peak increase of 50% over control) of 0.030 mg./kg. while the compound of Example 2 gave an ^ED50 of 6 mcg./kg.

[1] = test system: Isolated Cat Papillary Muscles; assay: Positive inotropic activity in isolated cat papillary muscles; set-up: species or system Cats; conditions: Felis catus, maximum contractility, isolated cat papillary muscle, read-out: contractility, percent of control (control = 100 percent); for activity at 100 µM: 10^-4 M; for activity at 10 µM: 10^-5 M
Protocol: Cats of either sex were anesthetized with Metofane (1,1-difluoro-2,2-dichloroethyl methyl ether, Pittman-Moore) their hearts immediately removed and the papillary muscles dissected and suspended in individual organ baths. A platinum hook secured one end of the muscle to an electrode mounted in the bottom of the bath, and a silk thread attached the tendon to a Statham isometric transducer. The baths contained Krebs-Henseleit solution (36°C., bubbled with 95 percent oxygen - 5 percent carbon dioxide) of the following millimolar composition: NaCl, 118; KCl, 4.5; CaCl2, 2.5; KH2PO4, 1.1; MgS04, 1.2; NaHCO3, 25; and glucose, 11.
A base-line tension of 1.5 g. was applied to each muscle. Square-wave pulses (5.0 msec. in duration, 20 percent above threshold voltage) delivered through the hook electrode and a second electrode positioned near the top of the muscle evoked 12 contractions/minute, which were recorded on a Grass polygraph. After the muscles were equilibrated for 60 minutes, drugs were introduced in normal saline to bring the final concentration of the drug to 10 5 or 10^-4 molar. Increases in contractility were tabulated as millimeters of pen deflection in excess of the baseline values. In each experiment the maximum contractility was measured. As a percent of control (control = 100 percent), the compound of Example 1 produced a contractility of 149% at 10^-5 M and 168% at 10^-4 M and the compound of Example 2 gave a contractility of 240% at 10^-5M and 326% at 10^-4M.

Q: What does the source list for `COc1cc(NS(C)(=O)=O)ccc1-c1nc2cnccc2[nH]1` [Example 1, 2-(2-Methoxy-4-methylsulfonamidophenyl)imidazo[4,5-c]pyridine]?
A: ED50 (cardiac contractility): 0.03 mg/kg; activity at 100 µM [1]: 168%; activity at 10 µM [1]: 149%

Q: Which results are given for `COc1cc(OS(C)(=O)=O)ccc1-c1nc2cnccc2[nH]1` [Example 2, 4-(Imidazo[4,5-c]pyridin-2-yl)-3-methoxyphenol, methanesulfonate (ester) hydrochloride]?
A: ED50 (cardiac contractility): 0.006 mg/kg; activity at 100 µM [1]: 326%; activity at 10 µM [1]: 240%
